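Values below derive from 48-hour exposures of cells grown in 96-well plates, with endpoints linearly interpolated between the two concentrations bracketing the appropriate inhibition level. Here, GI50 denotes the concentration required for 50% inhibition of growth.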 Calls of active or inactive are those of the source. Rule as the data show it: active = GI50 up to about 1.1 µM and inactive = higher.
Tests used:
Test in all cases: DTP human tumour cell line panel, 48 h
786-0 = test system: 786-0
A498 = test system: A498
A549 = test system: A549
ACHN = test system: ACHN
BT-549 = test system: BT-549
CAKI-1 = test system: CAKI-1
CCRF-CEM = test system: CCRF-CEM
COLO 205 = test system: COLO 205
DU-145 = test system: DU-145
EKVX = test system: EKVX
HCT-116 = test system: HCT-116
HCT-15 = test system: HCT-15
HOP-62 = test system: HOP-62
HOP-92 = test system: HOP-92
HT-29 = test system: HT-29
Hs-578T = test system: Hs-578T
IGROV-1 = test system: IGROV-1
K562 = test system: K562
KM12 = test system: KM12
LOX IMVI = test system: LOX IMVI
M14 = test system: M14
MCF7 = test system: MCF7
MDA-MB-231 = test system: MDA-MB-231
MDA-MB-435 = test system: MDA-MB-435
MDA-N = test system: MDA-N
MOLT-4 = test system: MOLT-4
Malme-3M = test system: Malme-3M
NCI-H226 = test system: NCI-H226
NCI-H23 = test system: NCI-H23
NCI-H460 = test system: NCI-H460
NCI-H522 = test system: NCI-H522
NCI/ADR-RES = test system: NCI/ADR-RES
OVCAR-3 = test system: OVCAR-3
OVCAR-4 = test system: OVCAR-4
OVCAR-5 = test system: OVCAR-5
OVCAR-8 = test system: OVCAR-8
PC-3 = test system: PC-3
RPMI-8226 = test system: RPMI-8226
RXF 393 = test system: RXF 393
SF-268 = test system: SF-268
SF-295 = test system: SF-295
SF-539 = test system: SF-539
SK-MEL-28 = test system: SK-MEL-28
SK-MEL-2 = test system: SK-MEL-2
SK-MEL-5 = test system: SK-MEL-5
SK-OV-3 = test system: SK-OV-3
SN12C = test system: SN12C
SNB-19 = test system: SNB-19
SNB-75 = test system: SNB-75
SR = test system: SR
SW-620 = test system: SW-620
T47D = test system: T47D
TK-10 = test system: TK-10
U-251 = test system: U-251
UACC-257 = test system: UACC-257
UACC-62 = test system: UACC-62
UO-31 = test system: UO-31
HCC 2998 = test system: HCC 2998
HL-60 = test system: HL-60

CN(C)C(=O)OC1=CC2CCC(C1)N2C (stereo not given)
GI50 (786-0): > 100 µM (inactive)
GI50 (A498): > 100 µM (inactive)
GI50 (A549): 70.8 µM (inactive)
GI50 (ACHN): 82 µM (inactive)
GI50 (BT-549): > 100 µM (inactive)
GI50 (CAKI-1): > 100 µM (inactive)
GI50 (CCRF-CEM): 28.8 µM (inactive)
GI50 (COLO 205): > 100 µM (inactive)
GI50 (DU-145): > 100 µM (inactive)
GI50 (EKVX): > 100 µM (inactive)
GI50 (HCT-116): > 100 µM (inactive)
GI50 (HCT-15): 48.3 µM
GI50 (HOP-62): > 100 µM (inactive)
GI50 (HOP-92): > 100 µM (inactive)
GI50 (HT-29): > 100 µM (inactive)
GI50 (Hs-578T): > 100 µM (inactive)
GI50 (IGROV-1): 71.4 µM (inactive)
GI50 (K562): 88.7 µM (inactive)
GI50 (KM12): > 100 µM (inactive)
GI50 (LOX IMVI): 61.4 µM (inactive)
GI50 (M14): 79.1 µM (inactive)
GI50 (MCF7): 66.1 µM (inactive)
GI50 (MDA-MB-231): > 100 µM (inactive)
GI50 (MDA-MB-435): > 100 µM (inactive)
GI50 (MDA-N): > 100 µM (inactive)
GI50 (MOLT-4): 52.8 µM (inactive)
GI50 (Malme-3M): > 100 µM (inactive)
GI50 (NCI-H226): 0.685 µM (active)
GI50 (NCI-H23): > 100 µM (inactive)
GI50 (NCI-H460): 32.4 µM (inactive)
GI50 (NCI-H522): > 100 µM (inactive)
GI50 (NCI/ADR-RES): 91.6 µM (inactive)
GI50 (OVCAR-3): > 100 µM (inactive)
GI50 (OVCAR-4): > 100 µM (inactive)
GI50 (OVCAR-5): > 100 µM (inactive)
GI50 (OVCAR-8): > 100 µM (inactive)
GI50 (PC-3): 97.5 µM (inactive)
GI50 (RPMI-8226): > 100 µM (inactive)
GI50 (RXF 393): > 100 µM (inactive)
GI50 (SF-268): > 100 µM (inactive)
GI50 (SF-295): > 100 µM (inactive)
GI50 (SF-539): > 100 µM (inactive)
GI50 (SK-MEL-28): > 100 µM (inactive)
GI50 (SK-MEL-2): > 100 µM (inactive)
GI50 (SK-MEL-5): > 100 µM (inactive)
GI50 (SK-OV-3): > 100 µM (inactive)
GI50 (SN12C): > 100 µM (inactive)
GI50 (SNB-19): > 100 µM (inactive)
GI50 (SNB-75): > 100 µM (inactive)
GI50 (SR): 47 µM (inactive)
GI50 (SW-620): > 100 µM (inactive)
GI50 (T47D): > 100 µM (inactive)
GI50 (TK-10): > 100 µM (inactive)
GI50 (U-251): 87.3 µM (inactive)
GI50 (UACC-257): > 100 µM (inactive)
GI50 (UACC-62): > 100 µM (inactive)
GI50 (UO-31): 52.5 µM (inactive)

Cc1ccc(S(=O)(=O)N2CCN(S(=O)(=O)c3ccc(C)cc3)CCN(S(=O)(=O)c3ccc(C)cc3)Cc3cc(C#N)c(C#N)cc3CN(S(=O)(=O)c3ccc(C)cc3)CC2)cc1
GI50 (786-0): > 100 µM (inactive)
GI50 (A498): 20.7 µM (inactive)
GI50 (A549): > 100 µM (inactive)
GI50 (ACHN): > 100 µM (inactive)
GI50 (BT-549): > 100 µM (inactive)
GI50 (CAKI-1): > 100 µM (inactive)
GI50 (CCRF-CEM): > 100 µM (inactive)
GI50 (COLO 205): > 100 µM (inactive)
GI50 (DU-145): > 100 µM (inactive)
GI50 (EKVX): > 100 µM (inactive)
GI50 (HCC 2998): > 100 µM (inactive)
GI50 (HCT-116): > 100 µM (inactive)
GI50 (HCT-15): > 100 µM
GI50 (HL-60): > 100 µM (inactive)
GI50 (HOP-62): > 100 µM (inactive)
GI50 (HOP-92): 25.3 µM (inactive)
GI50 (HT-29): > 100 µM (inactive)
GI50 (Hs-578T): > 100 µM (inactive)
GI50 (IGROV-1): > 100 µM (inactive)
GI50 (K562): > 100 µM (inactive)
GI50 (KM12): > 100 µM (inactive)
GI50 (LOX IMVI): > 100 µM (inactive)
GI50 (M14): 25.8 µM (inactive)
GI50 (MCF7): > 100 µM (inactive)
GI50 (MDA-MB-231): 31 µM (inactive)
GI50 (MDA-MB-435): > 100 µM (inactive)
GI50 (MDA-N): 95.7 µM (inactive)
GI50 (MOLT-4): > 100 µM (inactive)
GI50 (Malme-3M): 52.4 µM (inactive)
GI50 (NCI-H226): 56.2 µM (inactive)
GI50 (NCI-H23): > 100 µM (inactive)
GI50 (NCI-H460): > 100 µM (inactive)
GI50 (NCI-H522): > 100 µM (inactive)
GI50 (NCI/ADR-RES): > 100 µM (inactive)
GI50 (OVCAR-3): > 100 µM (inactive)
GI50 (OVCAR-4): > 100 µM (inactive)
GI50 (OVCAR-5): > 100 µM (inactive)
GI50 (OVCAR-8): > 100 µM (inactive)
GI50 (PC-3): 39.4 µM (inactive)
GI50 (RPMI-8226): > 100 µM (inactive)
GI50 (RXF 393): > 100 µM (inactive)
GI50 (SF-268): > 100 µM (inactive)
GI50 (SF-295): > 100 µM (inactive)
GI50 (SF-539): > 100 µM (inactive)
GI50 (SK-MEL-28): > 100 µM (inactive)
GI50 (SK-MEL-5): > 100 µM (inactive)
GI50 (SK-OV-3): > 100 µM (inactive)
GI50 (SN12C): > 100 µM (inactive)
GI50 (SNB-19): 51.1 µM (inactive)
GI50 (SNB-75): 19.1 µM (inactive)
GI50 (SR): > 100 µM (inactive)
GI50 (SW-620): > 100 µM (inactive)
GI50 (T47D): > 100 µM (inactive)
GI50 (TK-10): 86.7 µM (inactive)
GI50 (U-251): > 100 µM (inactive)
GI50 (UACC-257): > 100 µM (inactive)
GI50 (UACC-62): > 100 µM (inactive)
GI50 (UO-31): > 100 µM (inactive)
